Reference: patent US8242280B2, “Fused ring heterocycle kinase modulators” (SGX Pharmaceuticals, Inc., priority 2007, dated 2012)

Legend:
[1] = target: T1, unphosphorylated T315I Abl kinase domain (Mus musculus, UniProt P00520, T315I); experiment: c-Abl T315I 0P bioassay (pyruvate kinase/lactate dehydrogenase coupled enzyme assay); assay type: biochemical; details: zero phosphorylation state (0P), 10 μM ATP, read-out: AbI T315I 0P IC50
T1 construct: purified and unphosphorylated T315I Abl kinase domain; made in house; host or cells: E. coli BL21(DE3) (Codon+RIL or pSA0145 strain)
T1 sequence (P00520 242-493 T315I limits assumed): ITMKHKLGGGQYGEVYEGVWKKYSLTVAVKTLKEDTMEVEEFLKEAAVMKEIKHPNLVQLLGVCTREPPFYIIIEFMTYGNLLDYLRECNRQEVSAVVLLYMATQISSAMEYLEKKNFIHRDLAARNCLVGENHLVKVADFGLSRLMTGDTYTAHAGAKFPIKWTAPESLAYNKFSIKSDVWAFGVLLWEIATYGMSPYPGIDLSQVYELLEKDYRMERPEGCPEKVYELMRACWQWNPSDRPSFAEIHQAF
From the text: Although the first of these examples uses the kinase domain of a mutant form of Abl T315I (“Abl T315I KD”), the kinase assays may use various forms of mutant and wild type enzymes, including, for example, the entire protein, the kinase domain, or a portion thereof (e.g. Abl Y393F). The kinases used in the assays may also be of varying phosphorylation states. In the c-Abl example, a mutant kinase at a zero phosphorylation state was used. c-Abl Pyruvate Kinase/Lactate Dehydrogenase Coupled Enzyme Assay
In the c-Abl Pyruvate Kinase (PK)/Lactate Dehydrogenase (LDH) Coupled Assay the protein kinase dependant phosphorylation of a substrate peptide was coupled to the oxidation of NADH. The oxidation of NADH to NAD+ was detected by monitoring a decrease in absorbance at 340 nm.
Materials: Abl substrate peptide=EAIYAAPFAKKK (SEQ ID NO: 1)—OH (Biopeptide, San Diego, Calif.); pNADH (Sigma Cat#N-8129, FW=709.4); 2M MgC12; 1M HEPES buffer, pH 7.5; Phosphoenolpyruvate (PEP) (Sigma Cat#P-7002, FW=234); Lactate dehydrogenase (LDH) (Worthington Biochemical Cat#2756); Pyruvate Kinase (PK) (Sigma Cat#P-9136); ATP (Sigma Cat#A-3377, FW=551); Greiner 384-well UV star plate; and purified and unphosphorylated T315I Abl kinase domain.
Stock Solutions: 10 mM NADH (7.09 mg/ml in miliQH2O) made fresh daily; 10 mM Abl substrate peptide (13.4 mg/ml in miliQH2O) stored at −20° C.; 100 mM HEPES buffer, pH 7.5 (5 ml 1M stock+45 ml miliQH2O); 100 mM MgCl2 (5 ml 2M MgCl2+95 ml dH2O); 100 MM PEP (23.4 mg/ml in dH2O) stored at −20° C.; 10 mM ATP (5.51 mg/ml in dH2O) stored at −20° C. (diluted 50 μl into total of 10 ml miliQH2O daily=50 μM ATP working stock); 1000 U/ml PK (U/mg varies with lot) flash-frozen under liquid N2 and stored at −80° C.; and 1000 U/ml LDH (U/mg varies with lot) flash-frozen under liquid N2 and stored at −80° C.
Standard Assay Setup for 384-well format (50 μl reaction): 300 μM NADH; 10 mM MgCl2; 2 mM PEP; 45U/ml PK; 60 U/ml LDH; 200 μM Abl substrate peptide; 2.5 μl test compound (in DMSO); 2 μg/ml Abl kinase domain; 10 μM ATP; 100 mM HEPES buffer. Positive controls contained DMSO with no test compound. Negative controls contained 5 μl of 0.5M EDTA (50 mM in the assay). The dephosphorylated form of the c-Abl T315I mutant was used in the biochemical screening assays. The kinase reaction was initiated at time t=0 by the addition of ATP.
Activity was measured by following the time-dependent loss of NADH by absorbance spectroscopy at 340 nm. The linear portion of the resulting progress curve was then analyzed by linear regression to get the activity in absorbance units/time, reported as the slope of that best fit line (moles/unit time can be calculated from using molar extinction coefficient for NADH at 340 nm, 6250M^−1 cm^−1).
Data was evaluated using the equation: Z′=1−[3*(σ++σ−)/|μ+−μ−|](Zhang, et al., 1999 J Biomol Screening 4(2) 67-73), where μ denotes the mean and σ the standard deviation. The subscript designates positive or negative controls. The Z′ score for a robust screening assay should be ≧0.50. The typical threshold=μ+−3*σ+. Any value that falls below the threshold was designated a “hit”.
Dose response was analyzed using the equation: y=min+{(max−min)/(1+10^[compound]−logIC50)}, where y is the observed initial slope, max=the slope in the absence of inhibitor, min=the slope at infinite inhibitor, and the IC50 is the [compound] that corresponds to ½ the total observed amplitude (Amplitude=max−min).
To measure modulation, activation, or inhibition of Abl KD, a test compound was added to the assay at a range of concentrations. Inhibitors may inhibit Abl KD activity at an IC50 in the micromolar range, the nanomolar range, or, for example, in the subnanomolar range.
An open-reading frame for c-Abl was amplified from a Mus musculus (mouse) cDNA library prepared from freshly harvested mouse liver using a commercially available kit (invitrogen) by PCR using the following primers: […]
The c-Abl T315I KD (kinase domain) was purified as follows. […]

Ba/F3 cells, ABL1 WT = Ba/F3 cells, ABL1 WT (Homo sapiens, UniProt P00519); experiment: 96-well XTT cell survival assay, Ba/F3 ABL1 WT; assay type: cell-based; details: 72 hours, read-out: ABL1 WT XTT [Ba/F3] IC50
Description: (§1) MV4-11 and THP cells were maintained in Iscove's Modified Dulbecco's Medium supplemented with 10% fetal bovine serum (FBS) and penicillin/streptomycin, Ba/F3 cells were maintained in RPMI 1640 supplemented with 10% FBS, penicillin/streptomycin and 5 ng/ml recombinant mouse IL-3.
(§2) Compounds were tested in the following assays in duplicate.
(§3) 96-well XTT assay: Cells (e.g. BaF3 315I, M351I, or E255K cells) were grown in growth media containing various concentrations of compounds (duplicates) on a 96-well plate for 72 hours at 37° C. The starting cell number was 5000-8000 cells per well and volume was 120 μl. At the end of the 72-hour incubation, 40 μl of XTT labeling mixture (50:1 solution of sodium 3′-[1-(phenylamino-carbonyl)-3,4-tetrazolium]-bis(4-methoxy-6-nitro)benzene sulfonic acid hydrate and Electron-coupling reagent: PMS (N-methyl dibenzopyrazine methyl sulfate) were added to each well of the plate. After an additional 2-6 hours of incubation at 37° C., the absorbance reading at 405 nm with background correction at 650 nm was measured with a spectrophotometer.

Ba/F3 cells, ABL1 T315I = Ba/F3 cells, ABL1 T315I (Homo sapiens, UniProt P00519, T315I, cells depend on it); experiment: 96-well XTT cell survival assay, Ba/F3 ABL1 T315I; assay type: cell-based; details: 72 hours, read-out: ABL1 T315I XTT [Ba/F3] IC50
Description: as §1, §2, §3

IC50 [1]	Compound	GI50 (Ba/F3 cells, ABL1 WT)	GI50 (Ba/F3 cells, ABL1 T315I)
< 0.05 µM	COc1ccccc1-c1c[nH]c2ncc(-c3cccc(C(C(=O)N4CCC[C@@H]4CO)N4CCNCC4)c3)cc12 (stereo partly drawn)	> 1 µM	> 1 µM
< 0.05 µM	COc1ccccc1-c1c[nH]c2ncc(-c3cccc(C(O)C(=O)N(C)C4CCOCC4)c3)cc12 (stereo not drawn)	< 1 µM	< 1 µM
< 0.05 µM	COc1ccccc1-c1c[nH]c2ncc(-c3cccc(C(O)c4ccccn4)c3)cc12 (stereo not drawn)	< 1 µM	< 1 µM
< 0.05 µM	COc1ccccc1-c1c[nH]c2ncc(-c3cccc(C(O)c4ncccc4C(F)(F)F)c3)cc12 (stereo not drawn)	> 1 µM	> 1 µM
< 0.05 µM	CNC(C(=O)N(C)C)c1cccc(-c2cnc3[nH]nc(-c4ccccc4OC)c3c2)c1 (stereo not drawn)	> 1 µM	> 1 µM
< 0.05 µM	CNC(C(=O)N(C)CCN(C)C)c1cccc(-c2cnc3[nH]nc(-c4ccccc4OC)c3c2)c1 (stereo not drawn)	> 1 µM	> 1 µM
< 0.05 µM	CNC(C(=O)N1CCC(N(C)C)C1)c1cccc(-c2cnc3[nH]nc(-c4ccccc4OC)c3c2)c1 (stereo not drawn)	> 1 µM	> 1 µM
< 0.05 µM	COc1ccccc1-c1c[nH]c2ncc(-c3cccc(C(O)c4nccn4C)c3)cc12 (stereo not drawn)	< 1 µM	< 1 µM
< 0.05 µM	COc1ccccc1-c1c[nH]c2ncc(-c3cccc(C(O)C(=O)N(C)CC4CCN(C)CC4)c3)cc12 (stereo not drawn)	< 1 µM	< 1 µM
< 0.05 µM	COc1ccccc1-c1c[nH]c2ncc(-c3cncc(C(O)C(=O)N(C)Cc4ccncc4)c3)cc12 (stereo not drawn)	> 1 µM	> 1 µM
< 0.05 µM	COc1ccccc1-c1n[nH]c2ncc(-c3cccc(C(O)c4ncccc4C)c3)cc12 (stereo not drawn)	< 1 µM	< 1 µM
> 0.5 µM	COc1ccccc1-c1c[nH]c2ncc(-c3cc(C(C#N)C(=O)N(C)C)ncn3)cc12 (stereo not drawn)	> 1 µM	> 1 µM
< 0.05 µM	CC[C@H](O)[C@@H](O)c1cccc(-c2cnc3[nH]nc(-c4ccccc4OC)c3c2)c1	< 1 µM	< 1 µM
< 0.05 µM	CC[C@@H]1OCO[C@H]1c1cccc(-c2cnc3[nH]nc(-c4ccccc4OC)c3c2)c1	> 1 µM	> 1 µM
< 0.05 µM	COc1ccccc1-c1n[nH]c2ncc(-c3cccc([C@H](O)[C@H](O)C(C)C)c3)cc12	< 1 µM	< 1 µM
< 0.05 µM	COc1ccccc1-c1n[nH]c2ncc(-c3cccc([C@@H]4OCO[C@@H]4C(C)C)c3)cc12	> 1 µM	> 1 µM
< 0.05 µM	COc1ccccc1-c1c[nH]c2ncc(-c3cccc(C(O)C(=O)N(C)Cc4ccnn4C)c3)cc12 (stereo not drawn)	< 1 µM	< 1 µM

Second part, the molecule before the results:

Compound	IC50 [1]	GI50 (Ba/F3 cells, ABL1 WT)	GI50 (Ba/F3 cells, ABL1 T315I)
COc1ccccc1-c1c[nH]c2ncc(-c3cccc(C4(C)NC(=O)NC4=O)c3)cc12 (stereo not drawn)	< 0.05 µM	< 1 µM	> 1 µM
COc1ccccc1-c1c[nH]c2ncc(-c3cccc(C(C(=O)N(C)CCN(C)C)N4CCNCC4)c3)cc12 (stereo not drawn)	< 0.05 µM	> 1 µM	> 1 µM
COc1ccccc1-c1n[nH]c2ncc(-c3cccc(C(O)c4ncccc4F)c3)cc12 (stereo not drawn)	< 0.05 µM	< 1 µM	< 1 µM
COc1ccccc1-c1n[nH]c2ncc(-c3cccc(C(O)c4ncccc4C(F)(F)F)c3)cc12 (stereo not drawn)	< 0.05 µM	> 1 µM	> 1 µM
COc1ccccc1-c1n[nH]c2ncc(-c3cccc(C(O)c4ccccn4)c3)cc12 (stereo not drawn)	< 0.05 µM	< 1 µM	> 1 µM
CNC(C(=O)N(C)C(C)C)c1cccc(-c2cnc3[nH]nc(-c4ccccc4OC)c3c2)c1 (stereo not drawn)	< 0.05 µM	> 1 µM	> 1 µM
COc1ccccc1-c1n[nH]c2ncc(-c3cccc(C(C(=O)N4CCC(N(C)C)C4)N(C)C)c3)cc12 (stereo not drawn)	0.05 to 0.5 µM	> 1 µM	> 1 µM
COc1ccccc1-c1n[nH]c2ncc(-c3cccc(C(C(=O)N(C)CCN(C)C)N(C)C)c3)cc12 (stereo not drawn)	0.05 to 0.5 µM	> 1 µM	> 1 µM
COc1ccccc1-c1c[nH]c2ncc(-c3cccc(C(O)C(=O)N(C)C[C@@H](O)CO)c3)cc12 (stereo partly drawn)	< 0.05 µM	< 1 µM	< 1 µM
COc1ccccc1-c1n[nH]c2ncc(-c3cccc(C(O)c4nccn4C)c3)cc12 (stereo not drawn)	< 0.05 µM	< 1 µM	> 1 µM
COc1ccccc1-c1n[nH]c2ncc(-c3cncc(C(O)C(=O)N(C)C)c3)cc12 (stereo not drawn)	< 0.05 µM	< 1 µM	< 1 µM
COc1ccccc1-c1c[nH]c2ncc(-c3cccc(C(O)C(=O)N(C)CC4CCCO4)c3)cc12 (stereo not drawn)	< 0.05 µM	< 1 µM	< 1 µM
COc1ccccc1-c1c[nH]c2ncc(-c3cccc(C(O)C(=O)N(C)CC4CCOCC4)c3)cc12 (stereo not drawn)	< 0.05 µM	< 1 µM	< 1 µM
COc1ccccc1-c1n[nH]c2ncc(-c3cccc([C@H](O)[C@@H](O)C(C)C)c3)cc12	< 0.05 µM	< 1 µM	< 1 µM
COc1ccccc1-c1n[nH]c2ncc(-c3cccc([C@@H](O)[C@H](O)C(C)C)c3)cc12	< 0.05 µM	< 1 µM	< 1 µM
COc1ccccc1-c1n[nH]c2ncc(-c3cccc([C@H]4OCO[C@@H]4C(C)C)c3)cc12	< 0.05 µM	> 1 µM	> 1 µM
